From patent US20260217708A1, “FUSED BENZAZEPINE DERIVATIVES FOR USE IN THE TREATMENT OF CANCER AND EPILEPSY” (UCB BIOPHARMA SRL, priority 2023, published 2026) come the findings set out here.

Assay [1] addresses T1, system Xc^− (Homo sapiens, UniProt Q9UPY5).
T1 sequence (Q9UPY5 1-501): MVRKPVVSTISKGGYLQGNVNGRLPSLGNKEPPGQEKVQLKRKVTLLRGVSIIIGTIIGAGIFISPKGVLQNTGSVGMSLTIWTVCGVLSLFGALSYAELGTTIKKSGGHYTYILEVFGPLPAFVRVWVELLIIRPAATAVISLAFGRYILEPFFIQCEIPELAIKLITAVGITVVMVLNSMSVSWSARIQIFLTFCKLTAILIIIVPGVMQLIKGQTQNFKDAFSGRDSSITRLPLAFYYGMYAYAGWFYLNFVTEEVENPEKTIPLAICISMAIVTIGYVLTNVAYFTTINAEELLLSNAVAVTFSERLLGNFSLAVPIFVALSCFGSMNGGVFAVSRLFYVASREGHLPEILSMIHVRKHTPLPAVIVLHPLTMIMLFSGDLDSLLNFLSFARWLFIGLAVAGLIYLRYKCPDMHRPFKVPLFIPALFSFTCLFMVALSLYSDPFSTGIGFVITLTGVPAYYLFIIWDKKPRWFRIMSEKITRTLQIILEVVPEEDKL
T1 sequence (P08195 1-529 partner): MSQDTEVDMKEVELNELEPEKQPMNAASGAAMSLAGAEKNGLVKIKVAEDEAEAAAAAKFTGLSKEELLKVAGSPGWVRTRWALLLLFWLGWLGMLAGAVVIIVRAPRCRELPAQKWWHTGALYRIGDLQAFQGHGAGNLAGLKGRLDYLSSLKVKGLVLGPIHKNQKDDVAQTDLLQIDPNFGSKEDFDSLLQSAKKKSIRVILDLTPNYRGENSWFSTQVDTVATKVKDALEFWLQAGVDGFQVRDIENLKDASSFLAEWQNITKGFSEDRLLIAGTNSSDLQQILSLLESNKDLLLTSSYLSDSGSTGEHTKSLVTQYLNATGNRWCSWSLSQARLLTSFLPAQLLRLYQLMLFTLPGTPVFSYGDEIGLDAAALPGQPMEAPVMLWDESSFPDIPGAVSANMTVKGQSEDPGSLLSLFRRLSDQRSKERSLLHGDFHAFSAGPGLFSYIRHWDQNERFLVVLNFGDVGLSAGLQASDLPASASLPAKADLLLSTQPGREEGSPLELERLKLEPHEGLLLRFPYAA
Nature of the assay: Cystine-induced glutamate release assay. More on the design: endogenous in cells; host or cells: H4 cells. In kind it is cell-based. Particulars: H4 cells, sodium-free HEPES buffer, 50 μM L-Cystine, 2 hours, Amplex Red glutamate readout; for IC50: read-out: pIC50 Cystine-induced glutamate release assay (converted). In a few lines: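 H4 cells in sodium-free HEPES buffer (pH 7.4), 2 days after plating; glutamate release induced with 50 μM L-cystine plus compound (1% DMSO), 2 h at 37 °C. Supernatant glutamate measured by Amplex Red fluorescence; IC50/pIC50 derived between 1% DMSO and 50 μM erastin controls.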

Assay [2] concerns the target T1, system Xc^−. Nature of the assay: [^14C]L-Cystine uptake assay. In kind it is cell-based. More on the design: endogenous in cells; host or cells: H4 cells. The conditions noted are these: H4 cells, sodium-free HEPES buffer, 0.5 μM L-[14C]Cystine and 4.5 μM L-Cystine, 1 hour at 37° C.; read-out: pIC50 [^14C] L-Cystine uptake assay (converted). In a few lines: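 H4 cells at 5×10^4 cells/well in sodium-free HEPES buffer were preincubated 15 min with compounds (1% DMSO). Uptake of 0.5 μM [14C]L-cystine plus 4.5 μM unlabelled L-cystine ran 1 hour at 37° C on scintillating plates. IC50 was set between 1% DMSO and 50 μM Erastin controls and expressed as pIC50.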

With `Cc1cc2c(c(=O)n1C)-c1cccnc1[C@@H](C)C(=O)N2CC(=O)Nc1ccc(C(F)F)cc1` (single isomer, unassigned) [#177, Enantiomer (10R) or (10S) of N-[4-(difluoromethyl)phenyl]-2-[4,5,10-trimethyl-3,9-dioxo-4,8,12-triazatricyclo[9.4.0.0^2,7]pentadeca-1(11),2(7),5,12,14-pentaen-8-yl]acetamide], the IC50 at system Xc^− [1] and on system Xc^− [2] was less than 15.8 nM throughout.
Turning to `CC1C(=O)N(CC(=O)Nc2ccc(C(F)F)cc2)c2cc(C3(F)CC3)oc(=O)c2-c2cccnc21` (single isomer, unassigned) [#365, N-[4-(difluoromethyl)phenyl]-2-[5-(1-fluorocyclopropyl)-10-methyl-3,9-dioxo-4-oxa-8,12-diazatricyclo[9.4.0.0^2,7]pentadeca-1(15),2(7),5,11,13-pentaen-8-yl]acetamide], the IC50 on system Xc^− [1] was less than 15.8 nM; on system Xc^− [2], 15.8 to 39.8 nM.
Take `COc1nc(OC(F)F)cc2c1-c1cccnc1C(C)C(=O)N2CC(=O)Nc1ccc(C(F)F)cc1` (single isomer, unassigned) [#330, 2-[5-(difluoromethoxy)-3-methoxy-10-methyl-9-oxo-4,8,12-triazatricyclo[9.4.0.0^2,7]pentadeca-1(15),2(7),3,5,11,13-hexaen-8-yl]-N-[4-(difluoromethyl)phenyl]acetamide]: on system Xc^− [1], the “pIC50 Cystine-induced glutamate release assay” value is “C (about 7.40 < pIC50 ≤ about 7.80)”. At system Xc^− [2], the IC50 is less than 15.8 nM.
In the case of `Cc1cc2c(c(=O)[nH]1)-c1ccccc1C(C)C(=O)N2CC(=O)Nc1ccc(C(F)(F)F)cc1` (stereo not drawn) [#156, 2-(3,7-dimethyl-1,6-dioxo-2,7-dihydropyrido[4,3-d][3]benzazepin-5-yl)-N-[4-(trifluoromethyl)phenyl]acetamide], the IC50 is 15.8 to 39.8 nM at system Xc^− [1] and 39.8 to 100 nM at system Xc^− [2].
Regarding `CNc1cc2c(c(Cl)n1)-c1cccnc1CC(=O)N2CC(=O)Nc1ccc(C(F)(F)F)cc1` [#169, 2-[3-chloro-5-(methylamino)-9-oxo-4,8,12-triazatricyclo[9.4.0.0^2,7]pentadeca-1(11),2(7),3,5,12,14-hexaen-8-yl]-N-[4-(trifluoromethyl)phenyl]acetamide], the IC50 was 100 to 501 nM at system Xc^− [1] and 15.8 to 39.8 nM at system Xc^− [2].
As to `CC1C(=O)N(CC(=O)Nc2ccc(C(F)F)cc2)c2cc(C#N)ccc2-c2cc(F)cnc21` (single isomer, unassigned) [#308, 2-[9-cyano-2-fluoro-5-methyl-6-oxo-5H-pyrido[2,3-d][1]benzazepin-7-yl]-N-[4-(difluoromethyl)phenyl]acetamide], the IC50 was less than 15.8 nM on system Xc^− [1] and 15.8 to 39.8 nM at system Xc^− [2].
Consider `Cc1cc2c(c(Cl)n1)-c1ccnnc1C(C)C(=O)N2CC(=O)Nc1ccc(Cl)c(F)c1` (single isomer, unassigned) [#258, 2-[3-chloro-5,10-dimethyl-9-oxo-4,8,12,13-tetrazatricyclo[9.4.0.0^2,7]pentadeca-1(15),2,4,6,11,13-hexaen-8-yl]-N-(4-chloro-3-fluoro-phenyl)acetamide], for which the IC50 on system Xc^− [1] and on system Xc^− [2] was less than 15.8 nM each time.
For the molecule `CC1C(=O)N(CC(=O)Nc2ccc(Cl)c(F)c2)c2cc(Cl)cc(F)c2-c2cncnc21` (single isomer, unassigned) [#314, 2-[9-chloro-11-fluoro-5-methyl-6-oxo-5H-pyrimido[4,5-d][1]benzazepin-7-yl]-N-(4-chloro-3-fluoro-phenyl)acetamide], the IC50 at system Xc^− [1] is 15.8 to 39.8 nM; on system Xc^− [2], less than 15.8 nM.
Turning to `Cc1cc2c(cn1)-c1ccccc1CC(=O)N2CC(=O)Nc1ccc(C(F)(F)F)cc1` [#14, 2-(3-methyl-6-oxo-7H-pyrido[4,3-d][3]benzazepin-5-yl)-N-[4-(trifluoromethyl)-phenyl]acetamide], the IC50 at system Xc^− [1] is 100 to 501 nM; at system Xc^− [2] it was less than 15.8 nM.
For the molecule `CCOc1nc(C)cc2c1-c1cccnc1CC(=O)N2CC(=O)Nc1ccc(C(F)(F)F)cc1` [#82, 2-(3-ethoxy-5-methyl-9-oxo-4,8,12-triazatri-cyclo[9.4.0.0^2,7]penta-deca-1(15),2(7),3,5,11, 13-hexaen-8-yl)-N-[4-(trifluoromethyl)phenyl] acetamide], the IC50 at system Xc^− [1] was 100 to 501 nM; at system Xc^− [2], 39.8 to 100 nM.
Consider `Cc1cc2c(c(C)n1)-c1cccnc1CC(=O)N2CC(=O)Nc1ccc(C2CC2)cc1` [#58, N-(4-cyclopropylphenyl)-2-(3,5-dimethyl-9-oxo-4,8,12-triazatricyclo[9.4.0.0^2,7]pentadeca-1(11),2(7),3,5,12,14-hexaen-8-yl)acetamide], for which the IC50 at system Xc^− [1] was 39.8 to 100 nM; at system Xc^− [2], 100 to 501 nM.
Consider `COc1nc2c(cc1CO)N(CC(=O)Nc1ccc(Cl)c(F)c1)C(=O)C(C)c1ccccc1-2` (stereo not drawn) [#399, N-(4-chloro-3-fluoro-phenyl)-2-[3-(hydroxymethyl)-2-methoxy-7-methyl-6-oxo-7H-pyrido[3,2-d][3]benzazepin-5-yl]acetamide], for which the results for the IC50 on system Xc^− [1] and on system Xc^− [2] were 39.8 to 100 nM and 15.8 to 39.8 nM, respectively.
Take `Cc1cc2c(c(F)n1)-c1cccnc1C(CO)C(=O)N2CC(=O)Nc1ccc(C(F)(F)F)cc1` (stereo not drawn) [#152, 2-[3-fluoro-10-(hydroxymethyl)-5-methyl-9-oxo-4,8,12-triazatricyclo[9.4.0.0^2,7]pentadeca-1(11),2(7),3,5,12,14-hexaen-8-yl]-N-[4-(trifluoromethyl)phenyl]acetamide]: the IC50 at system Xc^− [1] is 39.8 to 100 nM; on system Xc^− [2], 15.8 to 39.8 nM.
On to `Cc1cc2c(c(F)n1)-c1cncc(F)c1C(C)C(=O)N2CC(=O)Nc1ccc(C(F)(F)F)cc1` (stereo not drawn) [#171, 2-(3,12-difluoro-5,10-dimethyl-9-oxo-4,8,14-triazatricyclo[9.4.0.0^2,7]pentadeca-1(11),2(7),3,5,12,14-hexaen-8-yl)-N-[4-(trifluoromethyl)phenyl]acetamide], for which the IC50 at system Xc^− [1] is 39.8 to 100 nM; at system Xc^− [2], 15.8 to 39.8 nM.
For the molecule `COc1ccc2c(c1)C(C)C(=O)N(CC(=O)Nc1ccc(C(F)(F)F)cc1)c1cc(C)nc(Cl)c1-2` (stereo not drawn) [#393, 2-(1-chloro-9-methoxy-3,7-dimethyl-6-oxo-7H-pyrido[3,4-a][3]benzazepin-5-yl)-N-[4-(trifluoromethyl)phenyl]acetamide], the figures for the IC50 on system Xc^− [1] and at system Xc^− [2] were 39.8 to 100 nM and 15.8 to 39.8 nM, respectively.
Consider `Cc1cc2c(c(F)n1)-c1cnccc1C(C)C(=O)N2CC(=O)Nc1ccc(C(F)F)cc1` (single isomer, unassigned) [#259, N-[4-(difluoromethyl)phenyl]-2-[3-fluoro-5,10-dimethyl-9-oxo-4,8,14-triazatricyclo[9.4.0.0^2,7]pentadeca-1(15),2,4,6,11,13-hexaen-8-yl]acetamide], for which the IC50 at system Xc^− [1] and on system Xc^− [2] was less than 15.8 nM each time.
As for `CC1C(=O)N(CC(=O)Nc2ccc(Cl)c(F)c2)c2cc(N3CC(F)(F)C3)nc(F)c2-c2cccnc21` (single isomer, unassigned) [#268, N-(4-chloro-3-fluoro-phenyl)-2-[5-(3,3-difluoroazetidin-1-yl)-3-fluoro-10-methyl-9-oxo-4,8,12-triazatricyclo[9.4.0.0^2,7]pentadeca-1(15),2,4,6,11,13-hexaen-8-yl]acetamide], the IC50 at system Xc^− [1] and at system Xc^− [2] was less than 15.8 nM throughout.
Consider `CC1C(=O)N(CC(=O)Nc2ccc(C(F)F)cc2)c2cc(C#N)cc(F)c2-c2cccnc21` (single isomer, unassigned) [#309, 2-[9-cyano-11-fluoro-5-methyl-6-oxo-5H-pyrido[2,3-d][1]benzazepin-7-yl]-N-[4-(difluoromethyl)phenyl]acetamide], for which the IC50 on system Xc^− [1] and at system Xc^− [2] was 15.8 to 39.8 nM throughout.
